{
  "source": "patent US5994365A",
  "about": "“Substituted diazaanthracene compounds having pharmaceutical utility” (Diazans Limited, priority 1998, dated 1999)",
  "key": {"P. aeruginosa": {"system": "P. aeruginosa", "assay": "Broth microdilution (NCCLS guidelines), MIC", "assay_type": "cell-based, Pseudomonas aeruginosa", "conditions": "Table A", "protocol": "(§1) The dimer product of Example 15 was obtained in powder form. A stock solution of 1280 mg/L of the dimer in dimethylsulfoxide (DMSO) was prepared and stored at room temperature in a foil-wrapped screw-capped tube (10 ml). Subsequent dilutions were prepared using cation-adjusted Mueller-Hinton broth (50 mg/L Mg). […] It was resuspended upon mixing each time an aliquot was taken from the solution.\n(§2) Approximately 100 varied bacterial isolates were initially collected for screening, along with 9 ATCC organisms. Forty additional strains of Staphylococcus species were subsequently screened. All isolates were identified according to generally accepted lab protocol.\n(§3) Broth microdilution was performed according to NCCLS guidelines. Microdilution panels were prepared using doubling dilutions of the dimer in ~250 μl plastic, 96-well trays. Inoculum suspension equal to a 0.5 McFarland standard were further diluted and added to the microdilution trays to achieve a final inoculum of 5×10^5 CFU/ml (5×10^4 CFU/well). Colony counts were performed to confirm the final inoculum, as well as its purity. Each strain was also tested in a growth control well containing only MHB for viability.\n(§4) Microdilution trays were incubated at 35° C. in ambient air or 5% CO2 as appropriate for 16-20 hours. After incubation, the minimal inhibitory concentration (MIC) was defined as the lowest concentration of the dimer with no evidence of growth. Since 10 or more strains of most organisms were tested; a range of MICs was determined for each organism, as well as the concentration of the dimer that inhibited 50% of the strains (MIC50) and the concentration of the dimer that inhibited 90% of the strains (MIC90)."}, "ATCC S. epid 14990 [1]": {"system": "ATCC S. epid 14990", "assay": "Minimal bactericidal concentration (MBC), 99.9% kill", "assay_type": "cell-based", "protocol": "as §3\n(§5) Various isolates were also tested for minimal bactericidal concentration (MBC) (see Tables D and F).\n(§6) Subbed 50 μl of ≤5 clear wells"}, "ATCC EC 25922": {"system": "ATCC EC 25922", "assay": "Broth microdilution (NCCLS guidelines), MIC", "assay_type": "cell-based, Escherichia coli", "conditions": "Table A", "protocol": "as §1, §2, §3\nMicrodilution trays were incubated at 35° C. in ambient air or 5% CO2 as appropriate for 16-20 hours. […]"}, "S. aureus": {"system": "S. aureus", "assay": "Minimal bactericidal concentration (MBC), 99.9% kill", "assay_type": "cell-based, Staphylococcus aureus", "protocol": "as §3, §5\n(§7) Subbed clear wells (50 μl) Inoculum 5 × 10^4 /well\n(§8) 99.9% kill = 50 cols/well\nas §6"}, "[2]": {"system": "Staneg (coagulase negative Staph)", "assay": "Minimal bactericidal concentration (MBC), 99.9% kill", "assay_type": "cell-based, Coagulase negative staphylococci", "design": "unit not given here", "protocol": "as §3, §5, §7, §8, §6"}, "Staphylococcus species": {"system": "Staphylococcus species", "assay": "Effect of age of the dimer solution on MIC (stability of the solution)", "assay_type": "physicochemical", "conditions": "stored at RT in foil wrapped tube", "source_text": "The dimer solution was two weeks old at this time. When the additional Staph strains were then retested using a freshly made solution of the dimer, the MICs were lower (see Table E). The stability of the solution stored at RT in a foil wrapped tube could be a variable contributing to the discrepancy between MICs."}, "[3]": {"assay": "Precipitation of the dimer on dilution with Mueller-Hinton broth", "assay_type": "physicochemical", "conditions": "resuspended upon mixing", "protocol": "as §1"}, "[4]": {"system": "Vancomycin resistant Enterococcus (VRE)", "assay": "Broth microdilution (NCCLS guidelines), MIC", "assay_type": "cell-based", "conditions": "Table A", "protocol": "as §1, §2, §3, §4"}, "Enterobacteriaceae": {"system": "Enterobacteriaceae", "assay": "Broth microdilution (NCCLS guidelines), MIC", "assay_type": "cell-based", "conditions": "Table A, 10 strains", "protocol": "as §1, §2, §3, §4"}, "ATCC S. epid 14990 [5]": {"system": "ATCC S. epid 14990", "assay": "Broth microdilution (NCCLS guidelines), MIC", "assay_type": "cell-based", "conditions": "for MICs: in µg/mL", "protocol": "as §1, §2, §3, §4"}, "[6]": {"system": "Vancomycin susceptible Enterococcus (VSE)", "assay": "Broth microdilution (NCCLS guidelines), MIC", "assay_type": "cell-based", "conditions": "Table A", "protocol": "as §1, §2, §3, §4"}, "B. cepacia": {"system": "B. cepacia", "assay": "Broth microdilution (NCCLS guidelines), MIC", "assay_type": "cell-based", "conditions": "Table A, 5 strains", "protocol": "as §1, §2, §3, §4"}, "Acinetobacter": {"system": "Acinetobacter", "assay": "Broth microdilution (NCCLS guidelines), MIC", "assay_type": "cell-based", "conditions": "Table A, 5 strains", "protocol": "as §1, §2, §3, §4"}, "[7]": {"conditions": "Table G footnote, ATCC 14990 (coag neg staph)"}},
  "note": "“And” between values parts separate entries of the source, which are not always exact repeats. Equal entries are not always repeated.",
  "data": [
    {"substance": "10,10'-bis(3,6-dimethyl-5,10-dihydro-1,8-diazaanthracen-5-one) and 5,5'-bis(3,6-dimethyl-5,10-dihydro-1,8-diazaanthracen-10-one) [Example 15]", "values": [
      {"measurement": "MIC50", "setting": "P. aeruginosa; 10 strains", "result": "> 64", "unit": "µg/mL"},
      {"measurement": "MIC90", "setting": "P. aeruginosa; 10 strains", "result": "> 64", "unit": "µg/mL"},
      {"measurement": "Range of MICs", "setting": "P. aeruginosa; 10 strains", "result": "≥ 64", "unit": "mg/L"},
      {"measurement": "MIC", "setting": "P. aeruginosa; ATCC PA 27853 (×2)", "result": "> 64", "unit": "µg/mL"},
      {"measurement": "MBC", "setting": "ATCC S. epid 14990 [1]; Table F, ATCC S. epid 14990", "result": "> 0.5", "unit": "µg/mL"},
      {"measurement": "MBC", "setting": "ATCC S. epid 14990 [1]; [7]", "result": "≥ 0.5", "unit": "µg/mL"},
      {"measurement": "MIC", "setting": "ATCC EC 25922", "result": "> 64", "unit": "µg/mL"},
      {"measurement": "MBC", "setting": "S. aureus; Table D, S. aureus 1", "result": 2, "unit": "µg/mL"},
      {"measurement": "MBC", "setting": "S. aureus; Table D, S. aureus 2", "result": "> 16", "unit": "µg/mL"},
      {"measurement": "MBC", "setting": "S. aureus; Table D, S. aureus 3", "result": 16, "unit": "µg/mL"},
      {"measurement": "MBC", "setting": "S. aureus; Table D, S. aureus 4", "result": 8, "unit": "µg/mL"},
      {"measurement": "MBC", "setting": "S. aureus; Table D, S. aureus 5", "result": "> 16", "unit": "µg/mL"},
      {"measurement": "MBC", "setting": "S. aureus; Table D, S. aureus 6, skipped wells", "result": "> 16", "unit": "µg/mL"},
      {"measurement": "MBC", "setting": "S. aureus; Table D, S. aureus 7", "result": "> 16", "unit": "µg/mL"},
      {"measurement": "MBC", "setting": "S. aureus; Table D, S. aureus 8, skipped wells", "result": "> 16", "unit": "µg/mL"},
      {"measurement": "MBC", "setting": "S. aureus; Table F, ATCC S. aureus 25923", "result": 4, "unit": "µg/mL"},
      {"measurement": "MBC", "setting": "S. aureus; Table F, ATCC S. aureus 29213, skipped wells", "result": "> 16", "unit": "µg/mL"},
      {"measurement": "MBC", "setting": "S. aureus; Table F, Pip/Taz S. aureus 1", "result": 8, "unit": "µg/mL"},
      {"measurement": "MBC", "setting": "S. aureus; Table F, Pip/Taz S. aureus 3", "result": 4, "unit": "µg/mL"},
      {"measurement": "MBC", "setting": "S. aureus; Table F, Pip/Taz S. aureus 7", "result": 2, "unit": "µg/mL"},
      {"measurement": "MBC", "setting": "S. aureus; Table F, S. aureus 1, skipped wells", "result": 4, "unit": "µg/mL"},
      {"measurement": "MBC", "setting": "S. aureus; Table F, S. aureus 2", "result": 1, "unit": "µg/mL"},
      {"measurement": "MBC", "setting": "S. aureus; Table F, S. aureus 8, skipped wells", "result": "≥ 8", "unit": "µg/mL"},
      {"measurement": "MBC", "setting": "S. aureus; Table G footnote, ATCC 25923, methicillin susceptible", "result": 4, "unit": "µg/mL"},
      {"measurement": "MBC", "setting": "S. aureus; Table G footnote, ATCC 29213, methicillin susceptible, skipped wells", "result": 16, "unit": "µg/mL"},
      {"measurement": "MBC", "setting": "[2]; Table D, Staneg 1, skipped wells", "result": "> 16"},
      {"measurement": "MBC", "setting": "[2]; Table D, Staneg 2, skipped wells", "result": "> 4"},
      {"measurement": "MBC", "setting": "[2]; Table D, Staneg 3", "result": 16},
      {"measurement": "MBC", "setting": "[2]; Table D, Staneg 4", "result": "> 16"},
      {"measurement": "MBC", "setting": "[2]; Table D, Staneg 5, skipped wells", "result": 16},
      {"measurement": "MBC", "setting": "[2]; Table D, Staneg 6", "result": 8},
      {"measurement": "MBC", "setting": "[2]; Table D, Staneg 7, skipped wells", "result": "> 16"},
      {"measurement": "MBC", "setting": "[2]; Table D, Staneg 8", "result": 16},
      {"measurement": "MBC", "setting": "[2]; Table F, Staneg 1", "result": "> 1.0"},
      {"measurement": "MBC", "setting": "[2]; Table F, Staneg 4, skipped wells", "result": "> 16"},
      {"measurement": "MBC", "setting": "[2]; Table F, Staneg 7", "result": 1.0},
      {"measurement": "MICs with two weeks old dimer solution vs. original screen", "setting": "Staphylococcus species", "result": "MICs appeared to be significantly higher"},
      {"measurement": "precipitation", "setting": "[3]; at 128 mg/L in MHB", "result": "Some precipitation occurred at 128 mg/L"},
      {"measurement": "precipitation upon dilution with MH broth", "setting": "[3]; from 1280 mg/L DMSO stock, after sitting for short periods", "result": "some precipitation upon dilution with MH broth"},
      {"measurement": "MIC50", "setting": "[4]; 12 strains", "result": 64, "unit": "µg/mL"},
      {"measurement": "MIC90", "setting": "[4]; 12 strains", "result": "> 64", "unit": "µg/mL"},
      {"measurement": "Range of MICs", "setting": "[4]; 12 strains", "result": "≥ 64", "unit": "mg/L"},
      {"measurement": "MIC", "setting": "[4]; ATCC VRE 51299", "result": "> 64", "unit": "µg/mL"},
      {"measurement": "MIC50", "setting": "Enterobacteriaceae", "result": "> 64", "unit": "µg/mL"},
      {"measurement": "MIC90", "setting": "Enterobacteriaceae", "result": "> 64", "unit": "µg/mL"},
      {"measurement": "Range of MICs", "setting": "Enterobacteriaceae", "result": "> 64", "unit": "mg/L"},
      {"measurement": "MICs", "setting": "ATCC S. epid 14990 [5]; Table C, ATCC S. epid 14990 (×2), solution 14 days old", "result": 0.25},
      {"measurement": "MICs", "setting": "ATCC S. epid 14990 [5]; Table E, ATCC S. epid 14990, fresh solution, * = skipped wells (second value), listed as Dimer", "result": "0.3125 and 0.5"},
      {"measurement": "MIC", "setting": "ATCC S. epid 14990 [5]; Table F, ATCC S. epid 14990", "result": 0.0312, "unit": "µg/mL"},
      {"measurement": "MIC", "setting": "ATCC S. epid 14990 [5]; [7]", "result": 0.0312, "unit": "µg/mL"},
      {"measurement": "MIC50", "setting": "[6]; 12 strains", "result": "> 64", "unit": "µg/mL"},
      {"measurement": "MIC90", "setting": "[6]; 12 strains", "result": "> 64", "unit": "µg/mL"},
      {"measurement": "MIC", "setting": "[6]; ATCC VSE 29212", "result": "> 64", "unit": "µg/mL"},
      {"measurement": "MIC50", "setting": "B. cepacia", "result": "> 64", "unit": "µg/mL"},
      {"measurement": "MIC90", "setting": "B. cepacia", "result": "> 64", "unit": "µg/mL"},
      {"measurement": "Range of MICs", "setting": "B. cepacia", "result": "≥ 64", "unit": "mg/L"},
      {"measurement": "MIC50", "setting": "Acinetobacter", "result": "> 64", "unit": "µg/mL"},
      {"measurement": "MIC90", "setting": "Acinetobacter", "result": "> 64", "unit": "µg/mL"},
      {"measurement": "Range of MICs", "setting": "Acinetobacter", "result": "> 64", "unit": "mg/L"}
    ]}
  ]
}
